Measurements from ChEMBL document CHEMBL6153094, “Rationally designed highly amphipathic antimicrobial peptides demonstrating superior bacterial selectivity relative to the corresponding α-helix peptide” (Eur J Med Chem, 2025).
Where a SMILES comes first, the peptide text is derived from it. Bridges are numbered along the chain shown (N, C = ends). [ ]: non-standard residue; d: D form. The star is where a group is joined. X1 = CC[C@H](C)CCCCC(=O)*; Dab = NCC[C@H](N)C(=O)O

Experiments:
[1] = Toxicity in male Balb/c mouse assessed as inflammatory cell infiltration in lungs at 22.48 mg/kg, ip administered for 7 days by H and E staining based analysis; format: organism-based; details: in vivo, 168 h, time 7 day
[2] = Toxicity in male Balb/c mouse assessed as lung bubble contraction at 22.48 mg/kg, ip administered for 7 days by H and E staining based analysis; format: organism-based; details: in vivo, 168 h, time 7 day
[3] = Toxicity in male Balb/c mouse assessed as balloon-like degeneration in liver at 22.48 mg/kg, ip administered for 7 days by H and E staining based analysis; format: organism-based; details: in vivo, 168 h, time 7 day
[4] = Toxicity in male Balb/c mouse assessed as alveolar septum thickening at 22.48 mg/kg, ip administered for 7 days by H and E staining based analysis; format: organism-based; details: in vivo, 168 h, time 7 day
[5] = Toxicity in male Balb/c mouse assessed as lethal dose administered intraperitoneally for 7 days; details: in vivo, route ip, time 7 day
[6] = Toxicity in male Balb/c mouse assessed as edema in liver at 22.48 mg/kg, ip administered for 7 days by H and E staining based analysis; format: organism-based; details: in vivo, 168 h, time 7 day
[7] = Toxicity in male Balb/c mouse assessed as hemorrhage in liver at 22.48 mg/kg, ip administered for 7 days by H and E staining based analysis; format: organism-based; details: in vivo, 168 h, time 7 day
[8] = Acute toxicity in male Balb/c mouse assessed as animal death at 30 mg/kg, ip measured within 30 mins; format: organism-based; details: in vivo, 0.5 h
Pseudomonas aeruginosa [9] = experiment: Resistance fold, ratio of MIC for Pseudomonas aeruginosa ATCC 27853 measured after 20 passages in presence of gentamicin to MIC for Pseudomonas aeruginosa ATCC 27853 measured immediately in presence of gentamicin; format: functional
Enterococcus faecalis = experiment: Antimicrobial activity against Enterococcus faecalis ATCC 29212 assessed as inhibition of visible bacterial growth incubated for 18 hrs by broth-dilution method; format: functional
Staphylococcus aureus [10] = experiment: Resistance fold, ratio of MIC for Staphylococcus aureus ATCC 25923 measured after 20 passages in presence of gentamicin to MIC for Staphylococcus aureus ATCC 25923 measured immediately in presence of gentamicin; format: functional
Pseudomonas aeruginosa [11] = experiment: Antimicrobial activity against Pseudomonas aeruginosa ATCC 27853 assessed as inhibition of visible bacterial growth incubated for 18 hrs by broth microdilution method; format: functional
[12] = tested on: Staphylococcus epidermidis; experiment: Antimicrobial activity against Staphylococcus epidermidis ATCC 12228 assessed as inhibition of visible bacterial growth incubated for 18 hrs by broth-dilution method; format: functional
Staphylococcus aureus [13] = experiment: Resistance fold, ratio of MIC for Staphylococcus aureus ATCC 25923 measured after 20 passages to MIC for Staphylococcus aureus ATCC 25923 measured immediately; format: functional
Staphylococcus aureus [14] = experiment: Antibacterial activity against Staphylococcus aureus ATCC 25923 assessed as fold change in MIC incubated for 18 hrs in presence of FeCl3 by Mueller-Hinton broth based assay; format: functional
Staphylococcus aureus [15] = experiment: Antibiofilm activity in Staphylococcus aureus ATCC 25923 assessed as inhibition of biofilm formation at 1 times of MIC incubated for 24 hrs by crystal violet staining based analysis relative to control; format: functional
Pseudomonas aeruginosa [16] = experiment: Antibiofilm activity in Pseudomonas aeruginosa ATCC 27853 assessed as inhibition of biofilm formation at 1 times of MIC incubated for 24 hrs by crystal violet staining based analysis relative to control; format: functional
Klebsiella pneumoniae = experiment: Antimicrobial activity against Klebsiella pneumoniae ATCC 700603 assessed as inhibition of visible bacterial growth incubated for 18 hrs by broth microdilution method; format: functional
Escherichia coli = experiment: Antimicrobial activity against Escherichia coli ATCC 25922 assessed as inhibition of visible bacterial growth incubated for 18 hrs by broth microdilution method; format: functional
Pseudomonas aeruginosa [17] = experiment: Antibacterial activity against Pseudomonas aeruginosa ATCC 27853 assessed as fold change in MIC incubated for 18 hrs in presence of NaCl by Mueller-Hinton broth based assay; format: functional
Staphylococcus aureus [18] = experiment: Antibacterial activity against Staphylococcus aureus ATCC 25923 assessed as fold change in MIC incubated for 18 hrs in presence of NaCl by Mueller-Hinton broth based assay; format: functional
Pseudomonas aeruginosa [19] = experiment: Antibacterial activity against Pseudomonas aeruginosa ATCC 27853 assessed as fold change in MIC incubated for 18 hrs in presence of KCl by Mueller-Hinton broth based assay; format: functional
Staphylococcus aureus [20] = experiment: Antibacterial activity against Staphylococcus aureus ATCC 25923 assessed as fold change in MIC incubated for 18 hrs in presence of ZnCl2 by Mueller-Hinton broth based assay; format: functional
Pseudomonas aeruginosa [21] = experiment: Antibacterial activity against Pseudomonas aeruginosa ATCC 27853 assessed as fold change in MIC incubated for 18 hrs in presence of MgCl2 by Mueller-Hinton broth based assay; format: functional
Pseudomonas aeruginosa [22] = experiment: Antibacterial activity against Pseudomonas aeruginosa ATCC 27853 assessed as fold change in MIC incubated for 18 hrs in presence of FeCl3 by Mueller-Hinton broth based assay; format: functional
Staphylococcus aureus [23] = experiment: Antibacterial activity against Staphylococcus aureus ATCC 25923 assessed as fold change in MIC incubated for 18 hrs in presence of MgCl2 by Mueller-Hinton broth based assay; format: functional
Staphylococcus aureus [24] = experiment: Antimicrobial activity against methicillin-drug resistant Staphylococcus aureus ATCC 33591 assessed as concentration required to eliminate 90% bacteria incubated for 18 hrs by broth-microdilution method; format: functional
Staphylococcus aureus [25] = experiment: Antibiofilm activity in Staphylococcus aureus ATCC 25923 assessed as inhibition of biofilm formation at 1/2 times of MIC incubated for 24 hrs by crystal violet staining based analysis relative to control; format: functional
Pseudomonas aeruginosa [26] = experiment: Additive antimicrobial activity against gentamicin-resistant Pseudomonas aeruginosa ATCC 27853 assessed as fractional inhibitory concentration index incubated for 18 hrs in presence of gentamicin by checkerboard microdilution method; format: functional
Staphylococcus aureus [27] = experiment: Antibiofilm activity in Staphylococcus aureus ATCC 25923 assessed as inhibition of biofilm formation at 2 times of MIC incubated for 24 hrs by crystal violet staining based analysis relative to control; format: functional
Pseudomonas aeruginosa [28] = experiment: Resistance fold, ratio of MIC for Pseudomonas aeruginosa ATCC 27853 measured after 20 passages to MIC for Pseudomonas aeruginosa ATCC 27853 measured immediately; format: functional
Staphylococcus aureus [29] = experiment: Antibiofilm activity in Staphylococcus aureus ATCC 25923 assessed as inhibition of biofilm formation at 4 times of MIC incubated for 24 hrs by crystal violet staining based analysis relative to control; format: functional
Staphylococcus aureus [30] = experiment: Synergistic antimicrobial activity against gentamicin-resistant Staphylococcus aureus ATCC 25923 assessed as fractional inhibitory concentration index incubated for 18 hrs in presence of gentamicin by checkerboard microdilution method; format: functional
Pseudomonas aeruginosa [31] = experiment: Antibacterial activity against Pseudomonas aeruginosa ATCC 27853 assessed as fold change in MIC incubated for 18 hrs in presence of ZnCl2 by Mueller-Hinton broth based assay; format: functional
Acinetobacter baumannii = experiment: Antimicrobial activity against Acinetobacter baumannii ATCC 19606 assessed as inhibition of visible bacterial growth incubated for 18 hrs by broth microdilution method; format: functional
Bacillus subtilis = experiment: Antimicrobial activity against Bacillus subtilis ATCC 23857 assessed as inhibition of visible bacterial growth incubated for 18 hrs by broth microdilution method; format: functional
Staphylococcus aureus [32] = experiment: Antimicrobial activity against Staphylococcus aureus ATCC 25923 assessed as inhibition of visible bacterial growth incubated for 18 hrs by broth-dilution method; format: functional
Staphylococcus aureus [33] = experiment: Antibacterial activity against Staphylococcus aureus ATCC 25923 assessed as fold change in MIC incubated for 18 hrs in presence of KCl by Mueller-Hinton broth based assay; format: functional

In the case of CC(C)CCCCC(=O)N[C@@H](CCN)C(=O)N[C@H](C(=O)N[C@@H](CCN)C(=O)N[C@H]1CCNC(=O)[C@H]([C@@H](C)O)NC(=O)[C@H](CCN)NC(=O)[C@H](CCN)NC(=O)[C@H](CC(C)C)NC(=O)[C@@H](Cc2ccccc2)NC(=O)[C@H](CCN)NC1=O)[C@@H](C)O.CC[C@H](C)CCCCC(=O)N[C@@H](CCN)C(=O)N[C@H](C(=O)N[C@@H](CCN)C(=O)N[C@H]1CCNC(=O)[C@H]([C@@H](C)O)NC(=O)[C@H](CCN)NC(=O)[C@H](CCN)NC(=O)[C@H](CC(C)C)NC(=O)[C@@H](Cc2ccccc2)NC(=O)[C@H](CCN)NC1=O)[C@@H](C)O (X1-[Dab]T[Dab][Dab][Dab][dF]L[Dab][Dab]T; lactam 4-C) [listing 1 of 2 here], the Activity [1] is reported as “Toxic”, the Activity [2] is reported as “Toxic” and the Activity [3] is reported as “Toxic”. For the same compound, the Activity [4] was “Toxic”, the LD50 at 168 h [5] was 22.5 mg/kg and the Activity [6] was “Toxic”. The Activity [7] was “Toxic” and the Activity [8] was “Toxic”.
For CC(C)CCCCC(=O)N[C@@H](CCN)C(=O)N[C@H](C(=O)N[C@@H](CCN)C(=O)N[C@H]1CCNC(=O)[C@H]([C@@H](C)O)NC(=O)[C@H](CCN)NC(=O)[C@H](CCN)NC(=O)[C@H](CC(C)C)NC(=O)[C@@H](Cc2ccccc2)NC(=O)[C@H](CCN)NC1=O)[C@@H](C)O.CC[C@H](C)CCCCC(=O)N[C@@H](CCN)C(=O)N[C@H](C(=O)N[C@@H](CCN)C(=O)N[C@H]1CCNC(=O)[C@H]([C@@H](C)O)NC(=O)[C@H](CCN)NC(=O)[C@H](CCN)NC(=O)[C@H](CC(C)C)NC(=O)[C@@H](Cc2ccccc2)NC(=O)[C@H](CCN)NC1=O)[C@@H](C)O (X1-[Dab]T[Dab][Dab][Dab][dF]L[Dab][Dab]T; lactam 4-C) [listing 2 of 2 here], the “fold change (FC)” value (Pseudomonas aeruginosa [9]) was 8, the MIC (Enterococcus faecalis) was 128 µM and the “fold change (FC)” value (Staphylococcus aureus [10]) was 8. The MIC (Pseudomonas aeruginosa [11]) was < 1 µM, the MIC [12] was 8 µM and the “fold change (FC)” value (Staphylococcus aureus [13]) was 4. For the same compound, the “fold change (FC)” value (Staphylococcus aureus [14]) was “<=2”, the “inhibition (INH)” value (Staphylococcus aureus [15]) was 75% and the “inhibition (INH)” value (Pseudomonas aeruginosa [16]) was >90%. The MIC (Klebsiella pneumoniae) was < 1 µM, the MIC (Escherichia coli) was < 1 µM and the “fold change (FC)” value (Pseudomonas aeruginosa [17]) was 2. For the same compound, the “fold change (FC)” value (Staphylococcus aureus [18]) was 8, the “fold change (FC)” value (Pseudomonas aeruginosa [19]) was “<=2” and the “fold change (FC)” value (Staphylococcus aureus [20]) was “<=2”. For the same compound, the “fold change (FC)” value (Pseudomonas aeruginosa [21]) was “<=2”, the “fold change (FC)” value (Pseudomonas aeruginosa [22]) was “<=2” and the “fold change (FC)” value (Staphylococcus aureus [23]) was “<=2”. The EC90 (Staphylococcus aureus [24]) was 11.1 µM, the “inhibition (INH)” value (Staphylococcus aureus [25]) was 55% and the “fractional inhibitory concentration index (FICI)” value (Pseudomonas aeruginosa [26]) was 0.563. The “inhibition (INH)” value (Staphylococcus aureus [27]) was ~80%, the “fold change (FC)” value (Pseudomonas aeruginosa [28]) was 8 and the “inhibition (INH)” value (Staphylococcus aureus [29]) was ~80%. For the same compound, the “fractional inhibitory concentration index (FICI)” value (Staphylococcus aureus [30]) was 0.375, the “fold change (FC)” value (Pseudomonas aeruginosa [31]) was “<=2” and the MIC (Acinetobacter baumannii) was < 1 µM. The MIC (Bacillus subtilis) was 8 µM, the MIC (Staphylococcus aureus [32]) was 16 µM and the “fold change (FC)” value (Staphylococcus aureus [33]) was “<=2”.
